# Patent publication US20150011466A1, “APJ Receptor Compounds” (priority 2012, published 2015)
# Read-outs that look alike come from different tables or passages of the source. Where a SMILES comes first, the peptide text is derived from it. [ ]: non-standard residue; d: D form. The star is where a group is joined. Palmitoyl = CCCCCCCCCCCCCCCC(=O)*
# Key:
# APJ receptor = target: T1, APJ receptor (Homo sapiens, UniProt P35414); test: HTRF cAMP assay, inhibition of NKH477 stimulated cAMP in Human TRex cells expressing APJ upon doxycycline induction (APJ-hTREX); format: cell-based; settings: for percent intrinsic activity at 0.3 µM: read-out: % IA (@ 300 nM); for Ranking: class combining EC50 and % histamine
# T1 construct: expressed in transfected cells; host or cells: Human TRex cells (doxycycline-inducible)
# T1 sequence (P35414 1-380): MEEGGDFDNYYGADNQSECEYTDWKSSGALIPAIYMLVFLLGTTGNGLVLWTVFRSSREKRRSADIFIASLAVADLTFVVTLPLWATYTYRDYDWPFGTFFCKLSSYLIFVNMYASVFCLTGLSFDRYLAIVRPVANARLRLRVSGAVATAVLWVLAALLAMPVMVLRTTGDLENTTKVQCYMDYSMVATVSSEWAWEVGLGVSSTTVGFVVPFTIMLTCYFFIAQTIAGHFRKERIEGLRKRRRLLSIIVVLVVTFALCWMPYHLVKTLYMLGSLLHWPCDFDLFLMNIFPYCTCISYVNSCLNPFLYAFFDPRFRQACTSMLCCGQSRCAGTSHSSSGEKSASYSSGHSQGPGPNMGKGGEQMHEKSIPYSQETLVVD
# From the text: HTRF (homogeneous time resolved fluorescence) is a technology developed by Cisbio Bioassays based on TR-FRET (time-resolved fluorescence resonance energy transfer). Cisbio Bioassays has developed a wide selection of HTRF-based assays compatible with whole cells, thereby enabling functional assays to run under more physiological conditions. The IP-One assays are competitive immunoassays using cryptate-labeled anti-IP1 monoclonal antibody and d2-labeled IP1. IP1 is a relatively stable downstream metabolite of IP3, and accumulates in cells following Gq receptor activation.
# cAMP kits based on a competitive immunoassay using cryptate-labeled anti-cAMP antibody and d2-labeled cAMP were used to assay the effects of APJ compounds of the present invention. […] Cells are treated with […] doxycycline and seeded in all white 96 well plates @ 40 k/well overnight.
SMILES,percent intrinsic activity at 0.3 µM (APJ receptor) [%],Histimine (% vs. 48/40) (Histimine (% vs. 48/40)) [%],"EC50 (APJ receptor; inhibition of NKH477 stimulated cAMP, APJ-hTREX cells, read-out: APJ-hTREX EC50) [nM]",EC50 (APJ receptor) [nM],Ranking (APJ receptor)
CCCCCCCCCCCCCCCC(=O)N[C@H](C(=O)N[C@H](C(=O)N[C@@H](Cc1ccccc1)C(=O)N[C@@H](CCCNC(=N)N)C(=O)N[C@@H](CO)C(=O)N[C@@H](CO)C(=O)N[C@@H](CCC(=O)O)C(=O)N[C@H](CCCCN)C(=O)N[C@@H](CCCNC(=N)N)C(=O)N[C@@H](CCCNC(=N)N)C(=O)N[C@@H](CO)C(=O)N[C@@H](C)C(=O)N[C@@H](CC(=O)O)C(=O)N[C@H](C(=O)N[C@@H](Cc1ccccc1)C(=O)N[C@@H](Cc1c[nH]cn1)C(N)=O)[C@@H](C)CC)C(C)C)[C@@H](C)O [Compound 19] (Palmitoyl-TVFRSSE[dK]RRSADIFH-NH2),53,104,,,
CCCCCCCCCCCCCCCC(=O)N[C@H](C(=O)N[C@@H](CCC(N)=O)C(=O)N[C@@H](Cc1ccccc1)C(=O)N[C@@H](CCCNC(=N)N)C(=O)N[C@@H](CO)C(=O)N[C@@H](CO)C(=O)N[C@@H](CCC(=O)O)C(=O)N[C@H](CCCCN)C(=O)N[C@@H](CCCNC(=N)N)C(=O)N[C@@H](CCCNC(=N)N)C(=O)N[C@@H](CO)C(=O)N[C@@H](C)C(=O)N[C@@H](CC(=O)O)C(=O)N[C@H](C(=O)N[C@@H](Cc1ccccc1)C(=O)N[C@H](C(N)=O)[C@@H](C)CC)[C@@H](C)CC)[C@@H](C)O [Compound 21] (Palmitoyl-TQFRSSE[dK]RRSADIFI-NH2; C-terminus assumed),72,39,,41,*** (EC50<100 nM and % histamine>35%)
CCCCCCCCCCCCCCCC(=O)N[C@H](C(=O)N[C@H](C(=O)N[C@@H](Cc1ccccc1)C(=O)N[C@@H](CCCNC(=N)N)C(=O)N[C@@H](CO)C(=O)N[C@@H](CO)C(=O)N[C@@H](CCC(=O)O)C(=O)N[C@H](CCCCN)C(=O)N[C@@H](CCC(N)=O)C(=O)N[C@@H](CCCNC(=N)N)C(=O)N[C@@H](CO)C(=O)N[C@@H](C)C(=O)N[C@@H](CC(=O)O)C(=O)N[C@H](C(=O)N[C@@H](Cc1ccccc1)C(=O)N[C@H](C(N)=O)[C@@H](C)CC)[C@@H](C)CC)C(C)C)[C@@H](C)O [Compound 26] (Palmitoyl-TVFRSSE[dK]QRSADIFI-NH2; C-terminus assumed),6,−1,,112,**** (EC50 101-500 nM and % histamine<35%)
CCCCCCCCCCCCCCCC(=O)N[C@H](C(=O)N[C@H](C(=O)N[C@@H](Cc1ccccc1)C(=O)N[C@@H](CCCNC(=N)N)C(=O)N[C@@H](CO)C(=O)N[C@@H](CO)C(=O)N[C@@H](CCC(=O)O)C(=O)N[C@H](CCCCN)C(=O)N[C@@H](CCCNC(=N)N)C(=O)N[C@@H](CCCNC(=N)N)C(=O)N[C@@H](CO)C(=O)N[C@@H](C)C(=O)N[C@@H](CCC(N)=O)C(=O)N[C@H](C(=O)N[C@@H](Cc1ccccc1)C(=O)N[C@H](C(N)=O)[C@@H](C)CC)[C@@H](C)CC)C(C)C)[C@@H](C)O [Compound 29] (Palmitoyl-TVFRSSE[dK]RRSAQIFI-NH2),9,92,,,
CCCCCCCCCCCCCCCC(=O)N[C@H](C(=O)N[C@H](C(=O)N[C@@H](Cc1ccccc1)C(=O)N[C@@H](CCCNC(=N)N)C(=O)N[C@@H](CO)C(=O)N[C@@H](CO)C(=O)N[C@@H](CCC(=O)O)C(=O)N[C@H](CCCCN)C(=O)N[C@@H](CCCNC(=N)N)C(=O)N[C@@H](CCCNC(=N)N)C(=O)N[C@@H](CO)C(=O)N[C@@H](C)C(=O)N[C@@H](CC(=O)O)C(=O)N[C@H](C(=O)N[C@@H](CCC(N)=O)C(=O)N[C@H](C(N)=O)[C@@H](C)CC)[C@@H](C)CC)C(C)C)[C@@H](C)O [Compound 31] (Palmitoyl-TVFRSSE[dK]RRSADIQI-NH2),67,68,,,
CCCCCCCCCCCCCCCC(=O)N[C@H](C(=O)N[C@H](C(=O)N[C@@H](Cc1ccccc1)C(=O)N[C@@H](CCCNC(=N)N)C(=O)N[C@@H](CO)C(=O)N[C@@H](CO)C(=O)N[C@@H](CCC(=O)O)C(=O)N[C@H](CCCCN)C(=O)N[C@@H](CCCNC(=N)N)C(=O)N[C@@H](CCCNC(=N)N)C(=O)N[C@@H](CO)C(=O)N[C@@H](C)C(=O)N[C@@H](CC(=O)O)C(=O)N[C@H](C(=O)N[C@@H](Cc1ccccc1)C(=O)N[C@@H](CCC(N)=O)C(N)=O)[C@@H](C)CC)C(C)C)[C@@H](C)O [Compound 32] (Palmitoyl-TVFRSSE[dK]RRSADIFQ-NH2),55,69,,,

# More lines, main results first:
percent intrinsic activity at 0.3 µM (APJ receptor) [%],Histimine (% vs. 48/40) (Histimine (% vs. 48/40)) [%],"EC50 (APJ receptor; inhibition of NKH477 stimulated cAMP, APJ-hTREX cells, read-out: APJ-hTREX EC50) [nM]",SMILES,EC50 (APJ receptor) [nM],Ranking (APJ receptor)
63,107,,CCCCCCCCCCCCCCCC(=O)N[C@H](C(=O)N[C@H](C(=O)N[C@@H](Cc1ccccc1)C(=O)N[C@@H](CCCNC(=N)N)C(=O)N[C@@H](CO)C(=O)N[C@@H](CO)C(=O)N[C@@H](CCC(=O)O)C(=O)N[C@H](CCCCN)C(=O)N[C@@H](CCCNC(=N)N)C(=O)N[C@@H](CCCNC(=N)N)C(=O)N[C@@H](CO)C(=O)N[C@@H](C)C(=O)N[C@@H](Cc1c[nH]cn1)C(=O)N[C@H](C(=O)N[C@@H](Cc1ccccc1)C(=O)N[C@H](C(N)=O)[C@@H](C)CC)[C@@H](C)CC)C(C)C)[C@@H](C)O [Compound 16] (Palmitoyl-TVFRSSE[dK]RRSAHIFI-NH2),,
83,113,,CCCCCCCCCCCCCCCC(=O)N[C@H](C(=O)N[C@H](C(=O)N[C@@H](Cc1ccccc1)C(=O)N[C@@H](CCCNC(=N)N)C(=O)N[C@@H](CO)C(=O)N[C@@H](CO)C(=O)N[C@@H](CCC(=O)O)C(=O)N[C@H](CCCCN)C(=O)N[C@@H](CCCNC(=N)N)C(=O)N[C@@H](CCCNC(=N)N)C(=O)N[C@@H](CO)C(=O)N[C@@H](C)C(=O)N[C@@H](CC(=O)O)C(=O)N[C@@H](Cc1c[nH]cn1)C(=O)N[C@@H](Cc1ccccc1)C(=O)N[C@H](C(N)=O)[C@@H](C)CC)C(C)C)[C@@H](C)O [Compound 17] (Palmitoyl-TVFRSSE[dK]RRSADHFI-NH2),,
56,62,,CCCCCCCCCCCCCCCC(=O)N[C@H](C(=O)N[C@H](C(=O)N[C@@H](Cc1ccccc1)C(=O)N[C@@H](CCCNC(=N)N)C(=O)N[C@@H](CO)C(=O)N[C@@H](CO)C(=O)N[C@@H](CCC(=O)O)C(=O)N[C@H](CCCCN)C(=O)N[C@@H](CCCNC(=N)N)C(=O)N[C@@H](CCCNC(=N)N)C(=O)N[C@@H](CO)C(=O)N[C@@H](C)C(=O)N[C@@H](CC(=O)O)C(=O)N[C@H](C(=O)N[C@@H](Cc1c[nH]cn1)C(=O)N[C@H](C(N)=O)[C@@H](C)CC)[C@@H](C)CC)C(C)C)[C@@H](C)O [Compound 18] (Palmitoyl-TVFRSSE[dK]RRSADIHI-NH2),,
7,4,,CCCCCCCCCCCCCCCC(=O)N[C@H](C(=O)N[C@H](C(=O)N[C@@H](Cc1ccccc1)C(=O)N[C@@H](CCCNC(=N)N)C(=O)N[C@@H](CO)C(=O)N[C@@H](CO)C(=O)N[C@@H](CCC(=O)O)C(=O)N[C@H](CCCCN)C(=O)N[C@@H](CCCNC(=N)N)C(=O)N[C@@H](CCC(N)=O)C(=O)N[C@@H](CO)C(=O)N[C@@H](C)C(=O)N[C@@H](CC(=O)O)C(=O)N[C@H](C(=O)N[C@@H](Cc1ccccc1)C(=O)N[C@H](C(N)=O)[C@@H](C)CC)[C@@H](C)CC)C(C)C)[C@@H](C)O [Compound 27] (Palmitoyl-TVFRSSE[dK]RQSADIFI-NH2),,
8,16,,CCCCCCCCCCCCCCCC(=O)N[C@H](C(=O)N[C@H](C(=O)N[C@@H](Cc1ccccc1)C(=O)N[C@@H](CCCNC(=N)N)C(=O)N[C@@H](CO)C(=O)N[C@@H](CO)C(=O)N[C@@H](CCC(=O)O)C(=O)N[C@H](CCCCN)C(=O)N[C@@H](CCCNC(=N)N)C(=O)N[C@@H](CCCNC(=N)N)C(=O)N[C@@H](CO)C(=O)N[C@@H](CCC(N)=O)C(=O)N[C@@H](CC(=O)O)C(=O)N[C@H](C(=O)N[C@@H](Cc1ccccc1)C(=O)N[C@H](C(N)=O)[C@@H](C)CC)[C@@H](C)CC)C(C)C)[C@@H](C)O [Compound 28] (Palmitoyl-TVFRSSE[dK]RRSQDIFI-NH2),,
98,63,84.6,CCCCCCCCCCCCCCCC(=O)N[C@H](C(=O)N[C@H](C(=O)N[C@@H](Cc1ccccc1)C(=O)N[C@@H](CCCNC(=N)N)C(=O)N[C@@H](CO)C(=O)N[C@@H](CO)C(=O)N[C@@H](CCC(=O)O)C(=O)N[C@H](CCCCN)C(=O)N[C@@H](CCCNC(=N)N)C(=O)N[C@@H](CCCNC(=N)N)C(=O)N[C@@H](CO)C(=O)N[C@@H](C)C(=O)N[C@@H](CC(=O)O)C(=O)N[C@@H](CCC(N)=O)C(=O)N[C@@H](Cc1ccccc1)C(=O)N[C@H](C(N)=O)[C@@H](C)CC)C(C)C)[C@@H](C)O [Compound 30] (Palmitoyl-TVFRSSE[dK]RRSADQFI-NH2; C-terminus assumed),,*** (EC50<100 nM and % histamine>35%)
